In US12139508B2, “Steroid derivative regulators, method for preparing the same, and uses thereof” (JIANGSU HANSOH PHARMACEUTICAL GROUP CO., LTD., priority 2018, dated 2024):

The molecules below were run against GABA-A receptor (assay: 35S-TBPS binding assay (GABAA receptor binding ability test)). Details: rat cerebral cortex cell membrane, 5 μM GABA, 2 nM 35S-TBPS; read-out: 35S-TBPS bindng test: IC50 on inhibiting the TBPS binding activity.
Set-up: species or system Sprague-Dawley rat
Protocol: 1.2 Experimental Procedures 1.2.1 Extraction of Cerebral Cortex Cell Membrane:
1. The cerebral cortex of male Sprague-Dawley rat was isolated.
2. A pre-chilled 0.32 M sucrose solution (one tablet of protease inhibitor was added per 100 ml) was added to the cerebral cortex (the volume of sucrose solution was 10 times the volume of the cerebral cortex). The mixture was crushed with a 50 mL glass tissue homogenizer in batches and mixed well.
3. The mixture was centrifuged at 1500 g, 4° C. for 10 minutes, and the supernatant was collected.
4. The mixture was centrifuged at 20000 g, 4° C. for 30 minutes, and the supernatant was discarded.
5. The precipitate was resuspended with the pre-chilled phosphate buffer saline (PBS) (one tablet of protease inhibitor was added per 100 ml). An average of 4 ml of PBS was added per rat, and the mixture was mixed well by a glass tissue homogenizer.
6. The mixture was centrifuged at 10000 g, 4° C. for 10 minutes, and the supernatant was discarded.
7. Steps 5 and 6 were repeated three times.
8. Finally, the precipitate was resuspended with 4 volumes of PBS. The resulting solution was dispensed, frozen in liquid nitrogen, and stored at −80° C.
9. The protein concentration was measured by the bicinchoninic acid (BCA) method.
1.2.2 ^35S-TBPS Binding Assay
1. 230 μL of PBS was added to each well of a well plate with 1.1 ml volume.
2. 60 μL of the cerebral cortex cell membrane (5 μg/μL) solution was added to each well, and the mixture was mixed well.
3. The test compound (3 μL per well) was added, and the plate was incubated at 25° C. for 5 minutes. The DMSO concentration was 1%. The initial compound concentration was 1 μM, and a 3-fold dilution in gradient was carried out to obtain a total of 8 gradients and 2 replicates. 1% DMSO was used as a negative control, and 10 μM P026-2 was used as a positive control.
4. GABA was added at a final concentration of 5 μM, and incubated at 25° C. for 5 minutes. 1 mM GABA solution was formulated, and 1.5 μL of the solution was added to each well.
5. ^35S-TBPS was added at a final concentration of 2 nM. The concentration of isotope mother solution was 9.7 μM. After dilution with PBS for 100 times, 6 μL of the diluted isotope solution was added to each well.
6. The plate was incubated at 4° C. for 20 hours.
7. The FilterMate GF/C plate was pre-treated with 0.5% PEI, and incubated at 4° C. for 1 hour.
8. The FilterMate GF/C plate was washed with Universal Harvester twice, 50 ml PBS each time.
9. The reaction solution was transferred to the GF/C plate, and each well was washed 4 times with 900 μL of PBS.
10. The washed GF/C plate was placed at 55° C. and dried for 10 minutes.
11. 40 μL of scintillation solution was added to each well, and the CPM value was read with TopCount.
1.2.3 Experimental Data Processing Method:
In the experiment, the CPM (counts per minute) value was read with TopCount. According to the readings of the High control (DMSO) and the Low control ([…] of the positive compound) experimental groups, the […] inhibition was calculated based on the following formula: % Inhibition=100×(CPMHigh control−CPMSample)/(CPMHigh control−CPMLow control)
The IC50 of the compound was calculated according to the following 4-parameter nonlinear logic formula: Y=Bottom+(Top−Bottom)/(1+10^((Log IC50−X)*Hill Slope)),
wherein: • X represents the log of compound concentration, • Y represents the 0 Inhibition.
The effect of the compound of the present invention on the TBPS binding activity was determined by the above test, and the measured IC50 values are shown in Table 1.
In the case of `C[C@@]1(O)CC[C@H]2[C@H](CC[C@@H]3[C@@H]2CC[C@@]2(C)[C@H]3[C@@H]3C[C@@H]3[C@@H]2C(=O)Cn2cc3ccncc3n2)C1` [Example 41, 1-((2R,4aS,4bR,6aS,7S,7aS,8aR,8bR,8cR,10aR)-2-hydroxy-2,6a-dimethyloctadecahydrocyclopropa[4,5]cyclopenta[1,2-a]phenanthren-7-yl)-2-(2H-pyrazolo[3,4-c]pyridin-2-yl)ethan-1-one], the IC50 is reported as 22.7 nM.
Work on `C[C@@]1(O)CC[C@H]2[C@H](CC[C@@H]3[C@@H]2CC[C@@]2(C)[C@H]3[C@@H]3C[C@@H]3[C@@H]2C(=O)Cn2ncc3ccncc32)C1` [Example 42, 1-((2R,4aS,4bR,6aS,7S,7aS,8aR,8bR,8cR,10aR)-2-hydroxy-2,6a-dimethyloctadecahydrocyclopropa[4,5]cyclopenta[1,2-a]phenanthren-7-yl)-2-(1H-pyrazolo[3,4-c]pyridin-1-yl)ethan-1-one] yielded an IC50 of 38.3 nM.
Molecule `C[C@@]1(O)CC[C@H]2[C@H](CC[C@@H]3[C@@H]2CC[C@@]2(C)[C@H]3[C@@H]3C[C@@H]3[C@@H]2C(=O)Cn2cc(F)cn2)C1` [Example 46, 2-(4-Fluoro-1H-pyrazol-1-yl)-1-((2R,4aS,4bR,6aS,7S,7aS,8aR,8bR,8cR,10aR)-2-hydroxy-2,6a-dimethyloctadecahydrocyclopropa[4,5]cyclopenta[1,2-a]phenanthren-7-yl)ethan-1-one] has an IC50 of 28.7 nM.
`CCOC(=O)c1cnn(CC(=O)[C@H]2[C@H]3C[C@H]3[C@H]3[C@@H]4CC[C@@H]5C[C@](C)(O)CC[C@@H]5[C@H]4CC[C@@]32C)c1` [Example 51, Ethyl 1-(2-((2R,4aS,4bR,6aS,7S,7aS,8aR,8bR,8cR,10aR)-2-hydroxy-2,6a-dimethyloctadecahydrocyclopropa[4,5]cyclopenta[1,2-a]phenanthren-7-yl)-2-oxoethyl)-1H-pyrazole-4-carboxylate] was tested, and the IC50 was 5 nM.
`C[C@@]1(O)CC[C@H]2[C@H](CC[C@@H]3[C@@H]2CC[C@@]2(C)[C@H]3[C@@H]3C[C@@H]3[C@@H]2C(=O)Cn2cc(C(=O)N3CC(F)(F)C3)cn2)C1` [Example 52] gave an IC50 of 65 nM.
`COc1ccc2nn(CC(=O)[C@H]3[C@H]4C[C@H]4[C@H]4[C@@H]5CC[C@@H]6C[C@](C)(O)CC[C@@H]6[C@H]5CC[C@@]43C)nc2c1` [Example 53, 1-((2R,4aS,4bR,6aS,7S,7aS,8aR,8bR,8cR,10aR)-2-Hydroxy-2,6a-dimethyloctadecahydrocyclopropa[4,5]cyclopenta[1,2-a]phenanthren-7-yl)-2-(5-methoxy-2H-benzo[d][1,2,3]triazol-2-yl)ethan-1-one] showed an IC50 of 12.3 nM.
`COc1ccc2nnn(CC(=O)[C@H]3[C@H]4C[C@H]4[C@H]4[C@@H]5CC[C@@H]6C[C@](C)(O)CC[C@@H]6[C@H]5CC[C@@]43C)c2c1` [Example 54A, 1-((2R,4aS,4bR,6aS,7S,7aS,8aR,8bR,8cR,10aR)-2-Hydroxy-2,6a-dimethyloctadecahydrocyclopropa[4,5]cyclopenta[1,2-a]phenanthren-7-yl)-2-(6-methoxy-1H-benzo[d][1,2,3]triazol-1-yl)ethan-1-one] showed an IC50 of 11.8 nM.
Molecule `COc1ccc2c(c1)nnn2CC(=O)[C@H]1[C@H]2C[C@H]2[C@H]2[C@@H]3CC[C@@H]4C[C@](C)(O)CC[C@@H]4[C@H]3CC[C@@]21C` [Example 54B, 1-((2R,4aS,4bR,6aS,7S,7aS,8aR,8bR,8cR,10aR)-2-Hydroxy-2,6a-dimethyloctadecahydrocyclopropa[4,5]cyclopenta[1,2-a]phenanthren-7-yl)-2-(5-methoxy-1H-benzo[d][1,2,3]triazol-1-yl)ethan-1-one] has an IC50 of 11.8 nM.
`Cc1nnn(CC(=O)[C@H]2C[C@@H](C)[C@H]3[C@@H]4CC[C@@H]5C[C@](C)(O)CC[C@@H]5[C@H]4CC[C@@]32C)n1` [Example 62, 1-((3R,5R,8R,9R,10S,13S,14S,15R,17S)-3-Hydroxy-3,13,15-trimethylhexadecahydro-1H-cyclopenta[a]phenanthren-17-yl)-2-(5-methyl-2H-tetrazol-2-yl)ethan-1-one] showed an IC50 of 5.4 nM.
Work on `C[C@@H]1C[C@H](C(=O)COc2ccc(F)cc2F)[C@@]2(C)CC[C@H]3[C@@H](CC[C@@H]4C[C@](C)(O)CC[C@@H]43)[C@H]12` [Example 64, 2-(2,4-Difluorophenoxy)-1-((3R,5R,8R,9R,10S,13S,14S,15R,17S)-3-hydroxy-3,13,15-trimethylhexadecahydro-1H-cyclopenta[a]phenanthren-17-yl)ethan-1-one] yielded an IC50 of 8.6 nM.
`C[C@@H]1C[C@H](C(=O)Cn2cc(C#N)c(C3CC3)n2)[C@@]2(C)CC[C@H]3[C@@H](CC[C@@H]4C[C@](C)(O)CC[C@@H]43)[C@H]12` [Example 69, 3-Cyclopropyl-1-(2-((3R,5R,8R,9R,10S,13S,14S,15R,17S)-3-hydroxy-3,13,15-trimethylhexadecahydro-1H-cyclopenta[a]phenanthren-17-yl)-2-oxoethyl)-1H-pyrazole-4-carbo nitrile] gave an IC50 of 7.6 nM.
Molecule `C[C@@H]1C[C@H](C(=O)Cn2cc(Cl)cn2)[C@@]2(C)CC[C@H]3[C@@H](CC[C@@H]4C[C@](C)(O)CC[C@@H]43)[C@H]12` [Example 91, 2-(4-Chloro-1H-pyrazol-1-yl)-1-((3R,5R,8R,9R,10S,13S,14S,15R,17S)-3-hydroxy-3,13,15-trimethylhexadecahydro-1H-cyclopenta[a]phenanthren-17-yl)ethan-1-one] has an IC50 of 9.6 nM.
For `C[C@@]1(O)CC[C@H]2[C@H](CC[C@@H]3[C@@H]2CC[C@@]2(C)[C@H]3[C@@H]3C[C@@H]3[C@@H]2C(=O)Cn2nc3ccc(F)cc3n2)C1` [Example 92, 2-(5-Fluoro-2H-benzo[d][1,2,3]triazol-2-yl)-1-((2R,4aS,4bR,6aS,7S,7aS,8aR,8bR,8cR,10aR)-2-hydroxy-2,6a-dimethyloctadecahydrocyclopropa[4,5]cyclopenta[1,2-a]phenanthren-7-yl)ethan-1-one], the IC50 was 10.8 nM.
For `C[C@@]1(O)CC[C@H]2[C@H](CC[C@@H]3[C@@H]2CC[C@@]2(C)[C@H]3[C@@H]3C[C@@H]3[C@@H]2C(=O)Cn2nnc3cc(F)ccc32)C1` [Example 93A, 2-(5-Fluoro-1H-benzo[d][1,2,3]triazol-1-yl)-1-((2R,4aS,4bR,6aS,7S,7aS,8aR,8bR,8cR,10aR)-2-hydroxy-2,6a-dimethyloctadecahydrocyclopropa[4,5]cyclopenta[1,2-a]phenanthren-7-yl)ethan-1-one], the IC50 was 3 nM.
For `C[C@@]1(O)CC[C@H]2[C@H](CC[C@@H]3[C@@H]2CC[C@@]2(C)[C@H]3[C@@H]3C[C@@H]3[C@@H]2C(=O)Cn2nnc3ccc(F)cc32)C1` [Example 93B, 2-(6-Fluoro-1H-benzo[d][1,2,3]triazol-1-yl)-1-((2R,4aS,4bR,6aS,7S,7aS,8aR,8bR,8cR,10aR)-2-hydroxy-2,6a-dimethyloctadecahydrocyclopropa[4,5]cyclopenta[1,2-a]phenanthren-7-yl)ethan-1-one], the IC50 was 3 nM.
Work on `Cc1cnn(CC(=O)[C@H]2[C@H]3C[C@H]3[C@H]3[C@@H]4CC[C@@H]5C[C@](C)(O)CC[C@@H]5[C@H]4CC[C@@]32C)c1` [Example 95, 1-((2R,4aS,4bR,6aS,7S,7aS,8aR,8bR,8cR,10aR)-2-Hydroxy-2,6a-dimethyloctadecahydrocyclopropa[4,5]cyclopenta[1,2-a]phenanthren-7-yl)-2-(4-methyl-1H-pyrazol-1-yl)ethan-1-one] yielded an IC50 of 34.1 nM.
Work on `C[C@@]1(O)CC[C@H]2[C@H](CC[C@@H]3[C@@H]2CC[C@@]2(C)[C@H]3[C@@H]3C[C@@H]3[C@@H]2C(=O)CNc2ccc(F)cc2)C1` [Example 97, 2-((4-Fluorophenyl)amino)-1-((2R,4aS,4bR,6aS,7S,7aS,8aR,8bR,8cR,10aR)-2-hydroxy-2,6a-dimethyloctadecahydrocyclopropa[4,5]cyclopenta[1,2-a]phenanthren-7-yl)ethan-1-one] yielded an IC50 of 30.2 nM.
